Test results reported in patent US8507509B2, “Saturated and insaturated bi- or tricyclic aryloxyacetamine derivatives and their use as fungicides” (Syngenta Crop Protection LLC, priority 2007, dated 2013).
Like-named read-outs stand apart in the source and are kept apart here.

Assays:
[1] = tested on: Plasmopara viticola; experiment: Plasmopara viticola (downy mildew of grapevine), grapevine leaf disk assay, preventive; type: in vivo; settings: foliar, 168 h, read-out: control of fungal infection, Plasmopara viticola
[2] = tested on: Phytophthora infestans; experiment: whole plant or invertebrate; type: in vivo; settings: in Solanum lycopersicum, foliar, 96 h, read-out: control of fungal infection, Phytophthora infestans
[3] = tested on: Erysiphe graminis f.sp. tritici; experiment: Erysiphe graminis f.sp. tritici (wheat powdery mildew), wheat leaf segment assay, preventive; type: in vivo; settings: Blumeria graminis, foliar, 96 h, read-out: control of fungal infection, Etysiphe graminis f.sp. tritici
[4] = tested on: Puccinia recondita f.sp. tritici; experiment: Puccinia recondita f.sp. tritici (wheat brown rust), wheat leaf segment assay, preventive; type: in vivo; settings: foliar, 216 h, read-out: control of fungal infection, Puccinia recondite f.sp. tritici
[5] = tested on: Septoria nodorum; experiment: Septoria nodorum (wheat glume blotch), wheat leaf segment assay, preventive; type: in vivo; settings: Parastagonospora nodorum, foliar, 96 h, read-out: control of fungal infection, Septoria nodorum
[6] = tested on: Septoria tritici; experiment: Septoria tritici (leaf blotch), liquid culture growth inhibition in nutrient broth; type: cell-based; settings: Zymoseptoria tritici, read-out: control of fungal infection, Septoria tritici
[7] = tested on: Fusarium culmorum; experiment: Fusarium culmorum (root rot), liquid culture growth inhibition in nutrient broth; type: cell-based; settings: PDB broth, 24 C, inhibition of growth determined photometrically after 48 hrs, read-out: control of fungal infection, Fusarium culmorum
In short: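 Fusarium culmorum conidia from cryogenic storage were mixed into potato dextrose broth and added to compound pre-dispensed from DMSO (diluted in 0.025% Tween20). Incubated at 24 C in the dark; growth inhibition read photometrically after 48 hrs.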

[8] = tested on: Pythium ultimum; experiment: Pythium ultimum (Damping off), liquid culture growth inhibition in potato dextrose broth; type: cell-based; settings: Globisporangium ultimum, read-out: control of fungal infection, Pythium ultimum
[9] = tested on: Botrytis cinerea; experiment: Botrytis cinerea (grey mould), bean leaf disk assay, preventive; type: in vivo; settings: foliar, 96 h, read-out: control of fungal infection, Botrytis cinerea
[10] = 200 ppm, grapevine leaf disks, assessed seven days after inoculation
[11] = 200 ppm, wheat leaf segments, assessed four days after inoculation
[12] = 200 ppm, wheat leaf segments, assessed nine days after inoculation
[13] = 200 ppm, PDB broth, 24 C, inhibition of growth determined photometrically after 72 hrs
[14] = 20 ppm, potato dextrose broth, 24° C., inhibition of growth determined photometrically after 48 hours
[15] = 200 ppm, bean leaf disks, assessed four days after inoculation

Structure (SMILES) | pest or weed control at 200 ppm [1, 10] | pest or weed control at 200 ppm [2] | pest or weed control at 200 ppm [3, 11] | pest or weed control at 200 ppm [4, 12] | pest or weed control at 200 ppm [5, 11] | inhibition of growth at 200 ppm [6, 13] | inhibition of growth at 200 ppm [7] | inhibition of growth at 20 ppm [8, 14] | melting point | pest or weed control at 200 ppm [9, 15] | pest or weed control at 200 ppm [1] | pest or weed control at 200 ppm [3] | pest or weed control at 200 ppm [9] | pest or weed control at 200 ppm [4] | pest or weed control at 200 ppm [5] | inhibition of growth at 200 ppm ([6]; 72 h) | inhibition of growth at 20 ppm ([8]; 48 h)
CON=CC(C)(C#N)NC(=O)C(Oc1ccc2ncc(I)cc2c1)SC (stereo not shown) [Compound No. 57, N-(1-Cyano-2-methoxyimino-1-methyl-ethyl)-2-(3-iodo-quinolin-6-yloxy)-2-methylsulfanyl-acetamide] | ≥ 60% | ≥ 60% | ≥ 60% | ≥ 60% | ≥ 60% | ≥ 60% | ≥ 60% | ≥ 60% | 59 to 64 °C | – | – | – | – | – | – | – | –
CON=CC(C)(C)NC(=O)C(Oc1cc(Cl)c2ccsc2c1)SC (stereo not shown) [Compound No. 81, 2-(4-Chloro-benzo[b]thiophen-6-yloxy)-N-(2-methoxyimino-1,1-dimethyl-ethyl)-2-methylsulfanyl-acetamide] | ≥ 60% | – | – | – | – | ≥ 60% | – | – | 120 to 122 °C | ≥ 60% | – | – | – | – | – | – | –
CON=CC(C)(C#N)NC(=O)C(Oc1ccc2ncc(C#C[Si](C)(C)C)cc2c1)SC (stereo not shown) [Compound No. 58, N-(1-Cyano-2-methoxyimino-1-methyl-ethyl)-2-methylsulfanyl-2-(3-trimethylsilanylethynyl-quinolin-6-yloxy)-acetamide] | ≥ 60% | ≥ 60% | ≥ 60% | – | ≥ 60% | ≥ 60% | – | ≥ 60% | 69 to 75 °C | ≥ 60% | – | – | – | – | – | – | –
CON=CC(C)(C)NC(=O)C(Oc1cc(Cl)c2ncc(Cl)cc2c1)SC (stereo not shown) [Compound No. 90, 2-(3,8-Dichloro-quinolin-6-yloxy)-N-(2-methoxyimino-1,1-dimethyl-ethyl)-2-methylsulfanyl-acetamide] | ≥ 60% | – | ≥ 60% | – | – | ≥ 60% | – | ≥ 60% | 158 to 161 °C | ≥ 60% | – | – | – | – | – | – | –
CON=CC(C)(C)NC(=O)C(Oc1ccc2ocnc2c1)SC (stereo not shown) [Compound No. 88, 2-(benzooxazol-5-yloxy)-N-(2-methoxyimino-1,1-dimethyl-ethyl)-2-methylsulfanyl-acetamide] | – | – | – | – | – | – | – | ≥ 60% | 95 to 96 °C | – | – | – | – | – | – | – | –
CON=CC(C)(C)NC(=O)C(Oc1cc(C)c2ncncc2c1)SC (stereo not shown) [Compound No. 91, N-(2-Methoxyimino-1,1-dimethyl-ethyl)-2-(8-methyl-quinazolin-6-yloxy)-2-methylsulfanyl-acetamide] | ≥ 60% | ≥ 60% | – | – | – | – | – | ≥ 60% | 109 to 112 °C | ≥ 60% | – | – | – | – | – | – | –
CON=CC(C)(C)NC(=O)C(OC)Oc1cc(C)c2ncc(I)cc2c1 (stereo not shown) [Compound No. 73, 2-(3-Iodo-8-methyl-quinolin-6-yloxy)-2-methoxy-N-(2-methoxyimino-1,1-dimethyl-ethyl)-acetamide] | ≥ 60% | – | ≥ 60% | ≥ 60% | ≥ 60% | ≥ 60% | ≥ 60% | ≥ 60% | 126 to 128 °C | ≥ 60% | – | – | – | – | – | – | –
COCC(C)(C=NOC)NC(=O)C(Oc1ccc2ncc(Br)cc2c1)SC (stereo not shown) [Compound No. 64, 2-(3-Bromo-quinolin-6-yloxy)-N-[2-methoxy-1-(methoxyimino-methyl)-1-methyl-ethyl]-2-methylsulfanyl-acetamide] | ≥ 60% | ≥ 60% | ≥ 60% | ≥ 60% | ≥ 60% | ≥ 60% | ≥ 60% | ≥ 60% | – | ≥ 60% | – | – | – | – | – | – | –
C#Cc1cnc2c(C)cc(OC(SC)C(=O)NC(C)(C#N)C=NOC)cc2c1 (stereo not shown) [Compound No. 56, N-(1-Cyano-2-methoxyimino-1-methyl-ethyl)-2-(3-ethynyl-8-methyl-quinolin-6-yloxy)-2-methylsulfanyl-acetamide] | ≥ 60% | ≥ 60% | ≥ 60% | ≥ 60% | ≥ 60% | ≥ 60% | – | ≥ 60% | 172 to 174 °C | ≥ 60% | – | – | – | – | – | – | –
C#Cc1cnc2ccc(OC(OC)C(=O)NC(C)(C)C=NOC)cc2c1 (stereo not shown) [Compound No. 76, 2-(3-Ethynyl-quinolin-6-yloxy)-2-methoxy-N-(2-methoxyimino-1,1-dimethyl-ethyl)-acetamide] | – | ≥ 60% | – | – | – | – | ≥ 60% | – | – | – | ≥ 60% | ≥ 60% | ≥ 60% | ≥ 60% | ≥ 60% | ≥ 60% | ≥ 60%
CON=CC(C)(C#N)NC(=O)C(Oc1cc(C)c2ncc(Br)cc2c1)SC (stereo not shown) [Compound No. 54, 2-(3-Bromo-8-methyl-quinolin-6-yloxy)-N-(1-cyano-2-methoxyimino-1-methyl-ethyl)-2-methylsulfanyl-acetamide] | ≥ 60% | ≥ 60% | ≥ 60% | – | – | ≥ 60% | ≥ 60% | ≥ 60% | 156 to 159 °C | – | – | – | – | – | – | – | –
C#Cc1cnc2ccc(OC(SC)C(=O)NC(C)(C=NOC)COC)cc2c1 (stereo not shown) [Compound No. 65, 2-(3-Ethynyl-quinolin-6-yloxy)-N-(2-methoxyimino-1-methoxymethyl-1-methyl-ethyl)-2-methylsulfanyl-acetamide] | ≥ 60% | ≥ 60% | ≥ 60% | ≥ 60% | ≥ 60% | ≥ 60% | ≥ 60% | ≥ 60% | – | ≥ 60% | – | – | – | – | – | – | –
C#Cc1cnc2c(C)cc(OC(OC)C(=O)NC(C)(C)C=NOC)cc2c1 (stereo not shown) [Compound No. 77, 2-(3-Ethynyl-8-methyl-quinolin-6-yloxy)-2-methoxy-N-(2-methoxyimino-1,1-dimethyl-ethyl)-acetamide] | ≥ 60% | ≥ 60% | ≥ 60% | ≥ 60% | ≥ 60% | ≥ 60% | ≥ 60% | ≥ 60% | 138 to 140 °C | – | – | – | – | – | – | – | –
CCC(Oc1ccc2ncc(Br)cc2c1)C(=O)NC(C)(C#N)C=NOC (stereo not shown) [Compound No. 60, 2-(3-Bromo-quinolin-6-yloxy)-N-(1-cyano-2-methoxyimino-1-methyl-ethyl)-butyramide] | – | ≥ 60% | – | – | – | ≥ 60% | – | ≥ 60% | 152 to 155 °C | ≥ 60% | – | – | – | – | – | – | –
CON=CC(C)(C)NC(=O)C(OC)Oc1cc(C)c2ncc(Br)cc2c1 (stereo not shown) [Compound No. 71, 2-(3-Bromo-8-methyl-quinolin-6-yloxy)-2-methoxy-N-(2-methoxyimino-1,1-dimethyl-ethyl)-acetamide] | ≥ 60% | – | ≥ 60% | – | – | ≥ 60% | ≥ 60% | – | 130 to 132 °C | ≥ 60% | – | – | – | – | – | – | –
CON=CC(C)(C#N)NC(=O)C(Oc1cc(C)c2ncc(I)cc2c1)SC (stereo not shown) [Compound No. 55, N-(1-Cyano-2-methoxyimino-1-methyl-ethyl)-2-(3-iodo-8-methyl-quinolin-6-yloxy)-2-methylsulfanyl-acetamide] | ≥ 60% | ≥ 60% | ≥ 60% | ≥ 60% | ≥ 60% | – | ≥ 60% | ≥ 60% | 166 to 168 °C | ≥ 60% | – | – | – | – | – | – | –
